One experiment has as its target T1, EcoFepA (Escherichia coli, UniProt P05825, A720C).
T1 construct: expressed in transfected cells; host or cells: E. coli OKN3/OKN13/OKN359/OKN1359 carrying pITS23 (fepA under its own promoter)
Description: biochemical. The experiment is classed as binding. Here is the method:
Fluorescence modifications. For modifications with maleimide fluorophores, we inoculated E. coli strains OKN3, OKN13, OKN359 or OKN1359, harboring plasmids that encoded a Cys mutant LGP, from frozen stocks into LB, grew them overnight and sub-cultured at 1% into iron-deficient MOPS minimal media, with shaking (200 rpm) at 37° C. for 10-12 h, until late exponential phase. After collecting the cells by centrifugation at 7500×g for 15 min, and washing with 50 mM NaHPO4, pH 6.7, we labeled the Cys-mutant LGP with 5 μM FM in 50 mM NaHPO4, pH 6.7 for 15 min at 37° C. FM. We terminated the labeling reactions with 100 μM β-mercaptoethanol. After collecting the fluoresceinated cells by centrifugation at 7500×g for 15 min, and washing with 50 mM NaHPO4, pH 6.7, we re-suspended them in PBS plus 0.2% glucose. We either immediately used the labeled cells in spectroscopic experiments, or rested them on ice (up to 24 h), or added glycerol to 15% and stored them (indefinitely) as 1 mL aliquots at −70° C. In the latter case, after thawing the labeled cells we pelleted them by centrifugation in a microfuge, washed them once with and re-suspended them in PBS containing 0.2% glucose. Lastly, for evaluation of protein expression or the extent of FM-labeling we solubilized aliquots of the cell suspensions with sample buffer, and subjected them to SDS-PAGE. After electrophoresis, we first visualized the fluorescence labeling on a Typhoon 8600 Biomolecular Scanner (GE/Amersham), and then stained the gels with Coomassie blue R (153).
Fluorescence spectroscopic binding determinations. We observed fluorophore-labeled cells in an SLM AMINCO 8100 fluorescence spectrometer, upgraded with an OLIS operating system and software (OLIS SpectralWorks, OLIS Inc., Bogart, GA), to control its shutters, polarizers and data collection. We also utilized an OLIS Clarity fluorescence spectrometer for fluorescence assays. For binding determinations we deposited 2.5×10^7 labeled cells in a quartz cuvette (final volume, 2 mL) with stirring at 37° C., measured the initial fluorescence (F0), and then added increasing concentrations of an iron complex while monitoring the quenching of fluorescence emissions (F) at 520 nm. We performed each measurement in triplicate and calculated the mean value of F/F0 at each ligand concentration. We plotted 1−F/F0 vs [ligand] and analyzed the data by the 1-site binding model of Grafit 6.0.12 (Erithacus Ltd. West Sussex, UK), that fits data to a single site saturation curve, where the amount of ligand bound is plotted as a function of the amount free:
These plots yielded KD values for each of the receptor-ligand interactions, with associated standard errors.
Table 1 lists KD values from analysis of fluorescence quenching with ferric or apo (parenthetic values) siderophores or porphyrins. For each determination, we measured the extent of fluorescence quenching of an FLGP, when exposed to sequentially increasing concentrations of the listed metal complexes, as plotted in FIGS. 2-4. We performed each experiment 2 or 3 times. The tabulated KD values are from single, representative experiments, in which we collected each data point in triplicate, plotted F/F0 vs [ligand] for each quenching titration, and fitted the curves to a single site binding model using Grafit 6.012 (Erithacus Ltd, […], UK).

A further experiment addresses KpnFepA1658 (Klebsiella pneumoniae, UniProt A6T631, A407C). As to the kind of experiment: Fluorescence quenching binding to KpnFepA1658-FM sensor. The following applies: read-out: Affinity (KD) of sensor KpnFepA 1658, apo siderophore; apo (parenthetic value); A382C. Here is the method: (§1) Fluorescence modifications. For modifications with maleimide fluorophores, we inoculated E. coli strains OKN3, OKN13, OKN359 or OKN1359, harboring plasmids that encoded a Cys mutant LGP, from frozen stocks into LB, grew them overnight and sub-cultured at 1% into iron-deficient MOPS minimal media, with shaking (200 rpm) at 37° C. for 10-12 h, until late exponential phase. After collecting the cells by centrifugation at 7500×g for 15 min, and washing with 50 mM NaHPO4, pH 6.7, we labeled the Cys-mutant LGP with 5 μM FM in 50 mM NaHPO4, pH 6.7 for 15 min at 37° C. FM. We terminated the labeling reactions with 100 μM β-mercaptoethanol. […] After electrophoresis, we first visualized the fluorescence labeling on a Typhoon 8600 Biomolecular Scanner (GE/Amersham), and then stained the gels with Coomassie blue R (153).
(§2) Fluorescence spectroscopic binding determinations. We observed fluorophore-labeled cells in an SLM AMINCO 8100 fluorescence spectrometer, upgraded with an OLIS operating system and software (OLIS SpectralWorks, OLIS Inc., Bogart, GA), to control its shutters, polarizers and data collection. We also utilized an OLIS Clarity fluorescence spectrometer for fluorescence assays. […] We performed each measurement in triplicate and calculated the mean value of F/F0 at each ligand concentration. […]

A further experiment concerns the target KpnFepA4984 (Klebsiella pneumoniae, UniProt A0ACD7TVS5, A414C). As to the kind of experiment: Fluorescence quenching binding to KpnFepA4984-FM sensor. The note with it: read-out: Affinity (KD) of sensor KpnFepA 4984, apo siderophore; apo (parenthetic value); A390C. How it is done:
as §1, §2

For the next experiment, the target named is T2, PaeFepA (Pseudomonas aeruginosa, UniProt Q05098, S296C).
T2 construct: expressed in transfected cells; host or cells: E. coli OKN3/OKN13/OKN359/OKN1359 carrying a pITS23 derivative
As to the kind of experiment: Fluorescence quenching binding to PaeFepA-FM sensor. Here is the method:
as §1, §2

Another experiment addresses KpnIroN (Klebsiella pneumoniae, UniProt A0ACD7U953, T234C). As to the kind of experiment: Fluorescence quenching binding to KpnIroN-FM sensor. The note with it: read-out: Affinity (KD) of sensor KpnIroN, apo siderophore; apo (parenthetic value); T210C. Here is the method: as §1, §2
The target of a further experiment is T3, EcoFepB (Escherichia coli, UniProt P0AEL6, T297C).
T3 construct: adds a 6H-tag at either the N- or C-termini of the mature proteins; 6-His (N); made in house; host or cells: E. coli BL21 (pET28), IPTG-induced; purified on Talon Superflow
As to the kind of experiment: biochemical. Type of experiment: binding. The text has this:
Cys Mutant protein expression and fluorescent labeling. The vector for LGP production, pITS23, carries wild-type EcofepA under control of its native, Fur-regulated promoter. For expression of each of the E. coli LGP (Fiu, FhuA, IutA, Cir, BtuB) we replaced EcofepA in pITS23 with the alternate LGP structural gene, with its own signal sequence, such that the iron-regulated EcofepA promoter-controlled biosynthesis. For LGP from of other species (KpnFepA, KpnIroN, KpnFyuA, AbaBauA, PaeFepA, PaeFpvA, CcrHutA), we replaced the sequence encoding mature EcoFepA with the sequence encoding the foreign mature LGP, downstream from the EcoFepA signal sequence, and regulated by the EcofepA promoter. […] We evaluated the expression and labeling of each of the cloned LGP by growing the appropriate E. coli host strain (OKN3, OKN359, OKN13 or OKN1359), harboring the plasmid constructs of interest, in iron-deficient MOPS medium to late log phase (A600 nm=2.5-3.5). We subsequently analyzed SDS-PAGE resolved samples of bacterial OM, or purified protein fractions, for fluorescence emissions at […] before staining with Coomassie blue R (FIGS. 7, 8, 9). In some cases, we used mouse monoclonal (α-EcoFepA) antibodies or rabbit polyclonal (α-FepB) antisera to determine the expression levels and stoichiometry of FM-labeling, which allowed quantification of expression. […]

Experiment [1] addresses T4, HsaSCN (human siderocalin) (Homo sapiens, UniProt P80188, Q148C).
T4 construct: adds a 6H-tag at either the N- or C-termini of the mature proteins; 6-His (N); made in house; host or cells: E. coli BL21 (pET28), IPTG-induced; purified on Talon Superflow
Description: Fluorescence quenching binding to purified HsaSCN-FM sensor. The following applies: ferric complexes and porphyrins; Cys residue Q128C, FM-labeled purified protein; NB = no binding; read-out: Affinity (KD) of sensor HsaSCN.

A further experiment concerns the target CcrHutA. Description: Fluorescence quenching binding to CcrHutA-FM sensor. The following applies: porphyrins; Cys residue A635C, FM-labeled; NB = no binding; read-out: Affinity (KD) of sensor CcrHutA. Further details: species or system Caulobacter crescentus. How it is done: as §1, §2

T1 sequence (P05825 23-746 A720C): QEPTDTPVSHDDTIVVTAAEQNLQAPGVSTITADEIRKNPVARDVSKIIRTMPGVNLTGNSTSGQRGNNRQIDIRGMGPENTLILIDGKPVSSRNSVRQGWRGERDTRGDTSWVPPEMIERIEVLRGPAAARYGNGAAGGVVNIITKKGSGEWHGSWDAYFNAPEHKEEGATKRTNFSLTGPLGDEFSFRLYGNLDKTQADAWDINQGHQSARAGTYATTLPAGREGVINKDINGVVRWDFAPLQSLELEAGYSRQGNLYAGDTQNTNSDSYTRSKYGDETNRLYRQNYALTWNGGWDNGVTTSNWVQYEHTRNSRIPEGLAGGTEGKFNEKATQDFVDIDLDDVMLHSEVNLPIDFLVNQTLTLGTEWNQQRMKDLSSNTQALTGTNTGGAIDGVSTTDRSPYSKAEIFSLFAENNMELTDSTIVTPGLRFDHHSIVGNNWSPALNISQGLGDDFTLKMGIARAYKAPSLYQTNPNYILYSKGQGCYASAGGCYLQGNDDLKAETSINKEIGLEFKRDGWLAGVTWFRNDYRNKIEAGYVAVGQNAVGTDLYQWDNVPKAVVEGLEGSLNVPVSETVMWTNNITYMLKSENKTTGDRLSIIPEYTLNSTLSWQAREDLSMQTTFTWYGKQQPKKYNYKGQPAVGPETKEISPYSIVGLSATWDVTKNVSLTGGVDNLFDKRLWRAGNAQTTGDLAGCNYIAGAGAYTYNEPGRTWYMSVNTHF
T3 sequence (P0AEL6 27-318 T297C): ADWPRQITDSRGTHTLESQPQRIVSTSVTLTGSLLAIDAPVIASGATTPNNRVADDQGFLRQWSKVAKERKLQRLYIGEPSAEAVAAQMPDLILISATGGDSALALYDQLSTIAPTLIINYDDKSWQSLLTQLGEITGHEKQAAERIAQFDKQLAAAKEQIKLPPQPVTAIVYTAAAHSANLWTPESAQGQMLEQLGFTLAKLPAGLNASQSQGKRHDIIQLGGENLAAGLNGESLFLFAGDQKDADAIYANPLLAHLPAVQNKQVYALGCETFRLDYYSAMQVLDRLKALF
T4 sequence (P80188 21-198 Q148C): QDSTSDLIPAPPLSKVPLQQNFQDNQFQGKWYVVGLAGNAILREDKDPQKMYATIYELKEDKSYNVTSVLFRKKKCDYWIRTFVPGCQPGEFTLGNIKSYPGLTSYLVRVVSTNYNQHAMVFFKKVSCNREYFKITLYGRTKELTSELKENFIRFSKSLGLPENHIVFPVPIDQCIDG

For orientation: Kd means the free concentration of one partner at which half of the binding sites on the other are occupied at equilibrium, for simple one-to-one binding. As for `O=C(N[C@H]1COC(=O)[C@@H](NC(=O)c2cccc(O)c2O)COC(=O)[C@@H](NC(=O)c2cccc(O)c2O)COC1=O)c1cccc(O)c1O` [Ent, enterobactin], the Kd at EcoFepA (Affinity (KD) of sensor EcoFepA, apo siderophore, apo (parenthetic value), A698C) came to 30 nM; at EcoFepA (KD, EcoFepA / EcoFepA-FM) it was 43 nM; at KpnFepA1658, 70 nM; on KpnFepA4984 it was 3300 nM; at PaeFepA, 1700 nM; on KpnIroN, 40 nM. The compound further yielded a Kd on EcoFepB of 6000 nM.

Take hemin [Hn]: the Kd worked out at 340 nM in experiment [1] and 150 nM at CcrHutA.

These data come from US20250155433A1, “FLUORESCENT SENSORS FOR DETECTION OF SIDEROPHORES AND OTHER MOLECULES PRODUCED BY BACTERIAL PATHOGENS” (Kansas State University Research Foundation, priority 2021, published 2025).
